How the values were obtained:
Assay in all cases: Kinase Selectivity Assay
Format in all cases: biochemical
Settings in all cases: read-out: Percent Inhibition at 1 μM
CDK2/cyclin A = target: T1, CDK2/cyclin A (Homo sapiens, UniProt P24941); further: ATP at apparent Km or 100 µM
T1 construct: purchased Invitrogen, Carlsbad, Calif
Experimental: (§1) Compounds were assayed for inhibitory activity against a panel of different kinase enzymes at a concentration of 1 μM. Where appropriate, full-length enzymes or catalytically active fragments, with N-terminal or C-terminal His- or GST-tags, were used (Invitrogen, Carlsbad, Calif.). Test compounds were initially diluted to 100× test concentration in 100% DMSO. This 100× concentration was then diluted to a 4× working concentration in Kinase Buffer (50 mM HEPES pH 7.5, 0.01% Brij-35, 10 mM MgCl2, 1 mM EGTA) and 2.5 μL was then added to a low volume NBS, 384-well plate (Corning, Corning, N.Y.). Five μL of a 2× peptide/kinase mixture (Invitrogen, Carlsbad, Calif.), as appropriate (listed in Table 3), was then added and the reaction was then initiated by addition of 2.5 μL of a 4× working concentration of ATP in Kinase Buffer.

CSF1R (FMS) = target: T2, CSF1R (FMS) (Homo sapiens, UniProt P07333); further: ATP at apparent Km or 100 µM
T2 construct: purchased Invitrogen, Carlsbad, Calif
Experimental: as §1

FLT3 = target: T3, FLT3 (Homo sapiens, UniProt P36888)
T3 construct: full-length enzymes or catalytically active fragments; purchased Invitrogen
Experimental: as §1

FYN = target: T4, FYN (Homo sapiens, UniProt P06241); further: ATP at apparent Km or 100 µM
T4 construct: full-length enzymes or catalytically active fragments; purchased Invitrogen
Experimental: as §1

FLT4 (VEGFR3) = target: T5, FLT4 (VEGFR3) (Homo sapiens, UniProt P35916); further: ATP at apparent Km or 100 µM
T5 construct: full-length enzymes or catalytically active fragments; purchased Invitrogen
Experimental: as §1

BTK = target: T6, BTK (Homo sapiens, UniProt Q06187); further: ATP at apparent Km or 100 µM
T6 construct: purchased Invitrogen, Carlsbad, Calif
Experimental: as §1

FLT3 D835Y = target: T7, FLT3 D835Y (Homo sapiens, UniProt P36888, D835Y); further: ATP at apparent Km or 100 µM
T7 construct: full-length enzymes or catalytically active fragments; purchased Invitrogen
Experimental: as §1

NTRK1 (TRKA) = target: T8, NTRK1 (TRKA) (Homo sapiens, UniProt P04629); further: ATP at apparent Km or 100 µM
T8 construct: full-length enzymes or catalytically active fragments; purchased Invitrogen
Experimental: as §1

ABL2 (Arg) = target: T9, ABL2 (Arg) (Homo sapiens, UniProt P42684); further: ATP at apparent Km or 100 µM
T9 construct: purchased Invitrogen, Carlsbad, Calif
Experimental: as §1

GSK3A (GSK3 alpha) = target: T10, GSK3A (GSK3 alpha) (Homo sapiens, UniProt P49840); further: ATP at apparent Km or 100 µM
T10 construct: full-length enzymes or catalytically active fragments; purchased Invitrogen
Experimental: as §1

KIT T670I = target: T11, KIT T670I (Homo sapiens, UniProt P10721, T670I); further: ATP at apparent Km or 100 µM
T11 construct: full-length enzymes or catalytically active fragments; purchased Invitrogen
Experimental: as §1

FGFR2 = target: T12, FGFR2 (Homo sapiens, UniProt P21802); further: ATP at apparent Km or 100 µM
T12 construct: full-length enzymes or catalytically active fragments; purchased Invitrogen
Experimental: as §1

FLT1 (VEGFR1) = target: T13, FLT1 (VEGFR1) (Homo sapiens, UniProt P17948); further: ATP at apparent Km or 100 µM
T13 construct: full-length enzymes or catalytically active fragments; purchased Invitrogen
Experimental: as §1

TBK1 = target: T14, TBK1 (Homo sapiens, UniProt Q9UHD2); further: ATP at apparent Km or 100 µM
T14 construct: purchased Invitrogen, Carlsbad, Calif
T14 sequence (Q9UHD2 whole entry): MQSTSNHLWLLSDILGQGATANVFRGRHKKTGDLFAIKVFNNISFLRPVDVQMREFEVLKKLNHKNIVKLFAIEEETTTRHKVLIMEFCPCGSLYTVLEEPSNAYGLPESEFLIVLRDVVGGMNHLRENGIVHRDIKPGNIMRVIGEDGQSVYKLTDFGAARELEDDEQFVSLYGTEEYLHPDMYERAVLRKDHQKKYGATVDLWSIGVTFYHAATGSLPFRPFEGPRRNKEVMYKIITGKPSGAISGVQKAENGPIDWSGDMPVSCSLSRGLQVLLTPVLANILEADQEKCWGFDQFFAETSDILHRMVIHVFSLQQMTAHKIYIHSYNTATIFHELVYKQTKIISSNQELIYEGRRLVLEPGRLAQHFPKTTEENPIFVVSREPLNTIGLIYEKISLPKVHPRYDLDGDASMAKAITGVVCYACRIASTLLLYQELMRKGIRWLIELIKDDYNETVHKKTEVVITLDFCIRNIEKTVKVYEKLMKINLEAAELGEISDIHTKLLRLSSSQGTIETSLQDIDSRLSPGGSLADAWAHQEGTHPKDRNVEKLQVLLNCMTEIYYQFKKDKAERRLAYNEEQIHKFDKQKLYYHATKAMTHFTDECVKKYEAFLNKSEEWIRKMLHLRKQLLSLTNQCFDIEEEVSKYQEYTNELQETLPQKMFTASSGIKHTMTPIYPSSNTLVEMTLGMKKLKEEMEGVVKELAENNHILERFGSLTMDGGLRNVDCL
Experimental: as §1

BLK = target: T15, BLK (Homo sapiens, UniProt P51451); further: ATP at apparent Km or 100 µM
T15 construct: purchased Invitrogen, Carlsbad, Calif
T15 sequence (P51451 whole entry): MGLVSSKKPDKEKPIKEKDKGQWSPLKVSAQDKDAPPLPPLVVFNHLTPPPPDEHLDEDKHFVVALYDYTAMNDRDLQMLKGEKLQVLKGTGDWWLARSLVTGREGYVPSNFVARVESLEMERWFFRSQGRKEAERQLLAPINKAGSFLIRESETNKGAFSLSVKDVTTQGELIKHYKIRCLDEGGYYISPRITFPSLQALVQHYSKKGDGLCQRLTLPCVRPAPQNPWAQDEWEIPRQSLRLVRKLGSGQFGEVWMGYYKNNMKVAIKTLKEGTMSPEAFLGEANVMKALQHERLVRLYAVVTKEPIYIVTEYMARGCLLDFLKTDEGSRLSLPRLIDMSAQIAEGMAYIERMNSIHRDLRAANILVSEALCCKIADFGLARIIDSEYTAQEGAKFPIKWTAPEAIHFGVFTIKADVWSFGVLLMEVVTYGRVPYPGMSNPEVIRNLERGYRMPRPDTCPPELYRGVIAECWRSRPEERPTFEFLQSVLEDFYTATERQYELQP
Experimental: as §1

STK6 (Aurora A) = target: T16, STK6 (Aurora A) (Homo sapiens, UniProt O14965); further: ATP at apparent Km or 100 µM
T16 construct: full-length enzymes or catalytically active fragments; purchased Invitrogen
Experimental: as §1

BMX = target: T17, BMX (Homo sapiens, UniProt P51813); further: ATP at apparent Km or 100 µM
T17 construct: purchased Invitrogen, Carlsbad, Calif
Experimental: as §1

DAPK3 (ZIPK) = target: T18, DAPK3 (ZIPK) (Homo sapiens, UniProt O43293); further: ATP at apparent Km or 100 µM
T18 construct: purchased Invitrogen, Carlsbad, Calif
T18 sequence (O43293 whole entry): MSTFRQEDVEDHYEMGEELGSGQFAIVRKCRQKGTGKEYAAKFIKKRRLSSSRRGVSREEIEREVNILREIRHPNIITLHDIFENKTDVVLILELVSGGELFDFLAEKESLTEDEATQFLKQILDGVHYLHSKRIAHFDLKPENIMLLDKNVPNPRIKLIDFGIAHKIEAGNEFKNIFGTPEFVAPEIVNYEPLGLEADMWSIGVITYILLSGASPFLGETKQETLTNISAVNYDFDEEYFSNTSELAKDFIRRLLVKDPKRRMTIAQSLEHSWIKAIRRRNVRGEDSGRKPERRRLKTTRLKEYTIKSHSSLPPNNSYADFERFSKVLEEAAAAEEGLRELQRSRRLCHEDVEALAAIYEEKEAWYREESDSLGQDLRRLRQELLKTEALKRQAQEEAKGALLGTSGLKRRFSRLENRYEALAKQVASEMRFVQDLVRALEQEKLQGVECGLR
Experimental: as §1

JAK2 = target: T19, JAK2 (Homo sapiens, UniProt O60674); further: ATP at apparent Km or 100 µM
T19 construct: full-length enzymes or catalytically active fragments; purchased Invitrogen
T19 sequence (O60674 whole entry, the tested form may be a part): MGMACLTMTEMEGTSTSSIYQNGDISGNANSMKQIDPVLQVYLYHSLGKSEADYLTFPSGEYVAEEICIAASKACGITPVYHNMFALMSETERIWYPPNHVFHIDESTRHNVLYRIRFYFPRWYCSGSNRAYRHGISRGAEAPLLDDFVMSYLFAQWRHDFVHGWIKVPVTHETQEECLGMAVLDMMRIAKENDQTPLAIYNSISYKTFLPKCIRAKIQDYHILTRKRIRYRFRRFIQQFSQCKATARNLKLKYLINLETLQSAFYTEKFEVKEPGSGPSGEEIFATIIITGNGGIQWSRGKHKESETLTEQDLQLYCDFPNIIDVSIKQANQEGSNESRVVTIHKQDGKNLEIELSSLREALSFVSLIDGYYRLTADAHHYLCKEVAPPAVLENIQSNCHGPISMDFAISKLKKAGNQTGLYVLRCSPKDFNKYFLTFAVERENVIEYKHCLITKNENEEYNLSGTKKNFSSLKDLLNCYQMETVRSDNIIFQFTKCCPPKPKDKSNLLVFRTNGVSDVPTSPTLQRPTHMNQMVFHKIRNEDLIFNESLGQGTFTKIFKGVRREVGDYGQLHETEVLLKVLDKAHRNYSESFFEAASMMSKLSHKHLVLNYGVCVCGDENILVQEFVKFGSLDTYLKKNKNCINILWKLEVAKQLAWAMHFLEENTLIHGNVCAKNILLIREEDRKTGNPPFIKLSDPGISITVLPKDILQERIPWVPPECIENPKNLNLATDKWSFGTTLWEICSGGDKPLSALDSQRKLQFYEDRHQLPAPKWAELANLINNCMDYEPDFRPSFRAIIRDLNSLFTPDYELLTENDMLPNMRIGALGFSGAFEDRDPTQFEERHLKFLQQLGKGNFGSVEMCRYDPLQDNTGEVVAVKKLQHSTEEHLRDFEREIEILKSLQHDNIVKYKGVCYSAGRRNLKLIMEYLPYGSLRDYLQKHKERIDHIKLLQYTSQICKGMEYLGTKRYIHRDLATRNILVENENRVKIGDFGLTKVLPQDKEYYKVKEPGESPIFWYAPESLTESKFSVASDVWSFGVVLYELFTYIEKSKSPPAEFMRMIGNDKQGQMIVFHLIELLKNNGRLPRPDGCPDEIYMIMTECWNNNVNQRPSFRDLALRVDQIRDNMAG
Experimental: as §1

AURKB (Aurora B) = target: T20, AURKB (Aurora B) (Homo sapiens, UniProt Q96GD4); further: ATP at apparent Km or 100 µM
T20 construct: purchased Invitrogen, Carlsbad, Calif
Experimental: as §1

KIT = target: T21, KIT (Homo sapiens, UniProt P10721)
T21 construct: full-length enzymes or catalytically active fragments; purchased Invitrogen
Experimental: as §1

IRAK4 = target: T22, IRAK4 (Homo sapiens, UniProt Q9NWZ3); further: ATP at apparent Km or 100 µM
T22 construct: full-length enzymes or catalytically active fragments; purchased Invitrogen
Experimental: as §1

GSK3B (GSK3 beta) = target: T23, GSK3B (GSK3 beta) (Homo sapiens, UniProt P49841); further: ATP at apparent Km or 100 µM
T23 construct: full-length enzymes or catalytically active fragments; purchased Invitrogen
Experimental: as §1

ROS1 = target: T24, ROS1 (Homo sapiens, UniProt P08922); further: ATP at apparent Km or 100 µM
T24 construct: full-length enzymes or catalytically active fragments; purchased Invitrogen
Experimental: as §1

MAP2K1 (MEK1) = target: T25, MAP2K1 (MEK1) (Homo sapiens, UniProt Q02750); further: ATP at apparent Km or 100 µM
T25 construct: full-length enzymes or catalytically active fragments; purchased Invitrogen
Experimental: as §1

EPHA1 = target: T26, EPHA1 (Homo sapiens, UniProt P21709); further: ATP at apparent Km or 100 µM
T26 construct: purchased Invitrogen, Carlsbad, Calif
Experimental: as §1

PDGFRA T674I = target: T27, PDGFRA T674I (Homo sapiens, UniProt P16234, T674I); further: ATP at apparent Km or 100 µM
T27 construct: full-length enzymes or catalytically active fragments; purchased Invitrogen
T27 sequence (P16234 24-1089 T674I): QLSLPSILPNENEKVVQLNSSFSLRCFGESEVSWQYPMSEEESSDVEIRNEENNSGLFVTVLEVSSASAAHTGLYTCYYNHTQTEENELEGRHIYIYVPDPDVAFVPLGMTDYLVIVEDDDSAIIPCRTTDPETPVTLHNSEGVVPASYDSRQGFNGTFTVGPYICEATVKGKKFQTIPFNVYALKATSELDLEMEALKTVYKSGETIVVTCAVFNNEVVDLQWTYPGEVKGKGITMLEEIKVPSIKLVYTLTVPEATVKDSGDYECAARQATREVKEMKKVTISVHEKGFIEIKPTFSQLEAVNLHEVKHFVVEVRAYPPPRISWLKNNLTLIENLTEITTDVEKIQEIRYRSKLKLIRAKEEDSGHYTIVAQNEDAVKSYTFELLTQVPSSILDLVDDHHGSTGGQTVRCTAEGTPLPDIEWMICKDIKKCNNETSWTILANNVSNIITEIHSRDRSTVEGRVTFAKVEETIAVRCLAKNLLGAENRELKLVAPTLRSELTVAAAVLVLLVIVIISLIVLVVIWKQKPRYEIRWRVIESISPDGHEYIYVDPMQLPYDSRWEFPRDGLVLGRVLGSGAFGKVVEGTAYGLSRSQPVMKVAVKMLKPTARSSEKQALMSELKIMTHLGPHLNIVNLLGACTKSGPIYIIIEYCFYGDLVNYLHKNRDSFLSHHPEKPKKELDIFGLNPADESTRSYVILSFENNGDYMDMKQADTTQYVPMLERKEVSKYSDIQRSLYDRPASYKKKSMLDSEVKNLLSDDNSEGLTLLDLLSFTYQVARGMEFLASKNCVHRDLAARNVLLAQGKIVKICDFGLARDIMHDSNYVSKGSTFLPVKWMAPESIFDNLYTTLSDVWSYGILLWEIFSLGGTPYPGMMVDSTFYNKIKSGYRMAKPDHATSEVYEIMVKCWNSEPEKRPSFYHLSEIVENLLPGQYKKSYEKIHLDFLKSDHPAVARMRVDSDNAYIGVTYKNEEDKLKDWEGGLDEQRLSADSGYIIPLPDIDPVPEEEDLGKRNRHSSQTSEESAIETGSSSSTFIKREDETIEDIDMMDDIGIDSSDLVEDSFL
Experimental: as §1

AKT1 (PKB alpha) = target: T28, AKT1 (PKB alpha) (Homo sapiens, UniProt P31749); further: ATP at apparent Km or 100 µM
T28 construct: purchased Invitrogen, Carlsbad, Calif
T28 sequence (P31749 whole entry): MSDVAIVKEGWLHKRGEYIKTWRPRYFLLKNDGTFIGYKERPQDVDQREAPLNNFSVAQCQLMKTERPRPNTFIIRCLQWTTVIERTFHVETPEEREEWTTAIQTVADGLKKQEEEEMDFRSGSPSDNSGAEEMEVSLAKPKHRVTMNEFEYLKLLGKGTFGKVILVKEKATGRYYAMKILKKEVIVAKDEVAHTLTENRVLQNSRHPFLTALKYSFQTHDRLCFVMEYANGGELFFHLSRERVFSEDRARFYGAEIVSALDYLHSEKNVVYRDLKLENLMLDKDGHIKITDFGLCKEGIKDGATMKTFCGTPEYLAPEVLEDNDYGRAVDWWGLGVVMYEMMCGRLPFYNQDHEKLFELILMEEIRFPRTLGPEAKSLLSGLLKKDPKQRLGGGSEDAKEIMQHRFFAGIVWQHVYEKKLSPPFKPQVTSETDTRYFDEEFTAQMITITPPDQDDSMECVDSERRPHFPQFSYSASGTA
Experimental: as §1

YES1 = target: T29, YES1 (Homo sapiens, UniProt P07947); further: ATP at apparent Km or 100 µM
T29 construct: purchased Invitrogen, Carlsbad, Calif
Experimental: as §1

PDGFRA (PDGFR alpha) = target: T30, PDGFRA (PDGFR alpha) (Homo sapiens, UniProt P16234)
T30 construct: full-length enzymes or catalytically active fragments; purchased Invitrogen
T30 sequence (P16234 24-1089): as the sequence (P16234 24-1089 T674I) above, with I651T counted along it
Experimental: as §1

RET = target: T31, RET (Homo sapiens, UniProt P07949); further: ATP at apparent Km or 100 µM
T31 construct: full-length enzymes or catalytically active fragments; purchased Invitrogen
Experimental: as §1

LYN A = target: T32, LYN A (Homo sapiens, UniProt P07948); further: ATP at apparent Km or 100 µM
T32 construct: full-length enzymes or catalytically active fragments; purchased Invitrogen
T32 sequence (P07948 whole entry, the tested form may be a part): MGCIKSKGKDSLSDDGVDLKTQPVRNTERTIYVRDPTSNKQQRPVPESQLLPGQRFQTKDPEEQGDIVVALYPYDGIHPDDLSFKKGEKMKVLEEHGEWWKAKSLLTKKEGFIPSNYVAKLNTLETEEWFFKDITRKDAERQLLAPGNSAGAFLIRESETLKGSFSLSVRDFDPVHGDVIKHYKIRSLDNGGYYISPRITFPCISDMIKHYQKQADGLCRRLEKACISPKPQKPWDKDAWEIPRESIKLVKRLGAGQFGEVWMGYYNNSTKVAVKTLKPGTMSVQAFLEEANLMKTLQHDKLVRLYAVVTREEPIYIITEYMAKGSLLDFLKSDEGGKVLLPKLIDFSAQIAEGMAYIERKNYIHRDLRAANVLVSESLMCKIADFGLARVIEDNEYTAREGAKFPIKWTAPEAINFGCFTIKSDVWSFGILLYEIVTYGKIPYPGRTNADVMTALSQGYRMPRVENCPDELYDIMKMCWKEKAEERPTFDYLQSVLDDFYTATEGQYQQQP
Experimental: as §1

KDR (VEGFR2) = target: T33, KDR (VEGFR2) (Homo sapiens, UniProt P35968); further: ATP at apparent Km or 100 µM
T33 construct: full-length enzymes or catalytically active fragments; purchased Invitrogen
Experimental: as §1

EPHB1 = target: T34, EPHB1 (Homo sapiens, UniProt P54762); further: ATP at apparent Km or 100 µM
T34 construct: purchased Invitrogen, Carlsbad, Calif
Experimental: as §1

PDGFRA D842V = target: T35, PDGFRA D842V (Homo sapiens, UniProt P16234, D842V); further: ATP at apparent Km or 100 µM
T35 construct: full-length enzymes or catalytically active fragments; purchased Invitrogen
T35 sequence (P16234 24-1089 D842V): as the sequence (P16234 24-1089 T674I) above, with I651T, D819V counted along it
Experimental: as §1

SRC = SRC (Homo sapiens, UniProt P12931); design: full-length enzymes or catalytically active fragments; purchased Invitrogen
Experimental: as §1

Row | SMILES | inhibition at 1 µM (CDK2/cyclin A) [%] | inhibition at 1 µM (CSF1R (FMS)) [%] | inhibition at 1 µM (FLT3) [%] | inhibition at 1 µM (FYN) [%] | inhibition at 1 µM (FLT4 (VEGFR3)) [%] | inhibition at 1 µM (BTK) [%] | inhibition at 1 µM (FLT3 D835Y) [%] | inhibition at 1 µM (NTRK1 (TRKA)) [%] | inhibition at 1 µM (ABL2 (Arg)) [%] | inhibition at 1 µM (GSK3A (GSK3 alpha)) [%] | inhibition at 1 µM (KIT T670I) [%] | inhibition at 1 µM (FGFR2) [%] | inhibition at 1 µM (FLT1 (VEGFR1)) [%] | inhibition at 1 µM (TBK1) [%] | inhibition at 1 µM (BLK) [%] | inhibition at 1 µM (STK6 (Aurora A)) [%] | inhibition at 1 µM (BMX) [%] | inhibition at 1 µM (DAPK3 (ZIPK)) [%] | inhibition at 1 µM (JAK2) [%] | inhibition at 1 µM (AURKB (Aurora B)) [%] | further results
1 | Cc1cc(Nc2nc(/C=C/c3ccccc3)nc(N3CCN(C)CC3)c2N)[nH]n1 [Example 10, 6-(4-methylpiperazin-1-yl)-N-(3-methyl-1H-pyrazol-5-yl)-2-[(E)-2-phenylvinyl]pyrimidin-4,5-diamine] | 8 | 80 | 93 | 50 | 87 | 28 | 80 | 92 | 32 | 38 | 44 | 53 | 25 | 73 | 67 | 83 | 19 | 93 | 61 | 37 | inhibition at 1 µM (KIT): 39%; inhibition at 1 µM (IRAK4): 14%; inhibition at 1 µM (GSK3B (GSK3 beta)): 26%; inhibition at 1 µM (ROS1): 54%; inhibition at 1 µM (MAP2K1 (MEK1)): 23%; inhibition at 1 µM (EPHA1): 52%; inhibition at 1 µM (PDGFRA T674I): 65%; inhibition at 1 µM (AKT1 (PKB alpha)): 9%; inhibition at 1 µM (YES1): 80%; inhibition at 1 µM (PDGFRA (PDGFR alpha)): 58%; inhibition at 1 µM (RET): 95%; inhibition at 1 µM (LYN A): 63%; inhibition at 1 µM (KDR (VEGFR2)): 88%; inhibition at 1 µM (EPHB1): 32%; inhibition at 1 µM (PDGFRA D842V): 9%; inhibition at 1 µM (SRC): 85%
2 | Cc1cc(Nc2cc(N3CCN(C)CC3)nc(/C=C/c3ccccc3)n2)n[nH]1 [Example 31, 6-(4-methylpiperazin-1-yl)-N-(3-methyl-1H-pyrazol-5-yl)-2-[(E)-2-phenylvinyl]pyrimidin-4-amine] | 8 | 97 | 98 | 89 | 97 | 63 | 98 | 96 | 74 | 36 | 79 | 86 | 53 | 80 | 90 | 96 | 61 | 68 | 91 | 75 | inhibition at 1 µM (KIT): 75%; inhibition at 1 µM (IRAK4): 63%; inhibition at 1 µM (GSK3B (GSK3 beta)): 28%; inhibition at 1 µM (ROS1): 65%; inhibition at 1 µM (MAP2K1 (MEK1)): 3%; inhibition at 1 µM (EPHA1): 77%; inhibition at 1 µM (PDGFRA T674I): 88%; inhibition at 1 µM (AKT1 (PKB alpha)): 5%; inhibition at 1 µM (YES1): 88%; inhibition at 1 µM (PDGFRA (PDGFR alpha)): 83%; inhibition at 1 µM (RET): 98%; inhibition at 1 µM (LYN A): 84%; inhibition at 1 µM (KDR (VEGFR2)): 96%; inhibition at 1 µM (EPHB1): 61%; inhibition at 1 µM (PDGFRA D842V): 24%; inhibition at 1 µM (SRC): 96%
